{
  "source": "patent US9420817B2",
  "about": "“Agent for amelioration of dysphagia, and pharmaceutical or food composition comprising the same” (AJINOMOTO CO., INC., priority 2006, dated 2016)",
  "test_system": "cough receptor",
  "test": "Cough receptor sensitivity test (nebulizer inhalation, C5)",
  "format": "in vivo, human",
  "details": "seventeen healthy adults, inhaled by nebulizer for 15 seconds at intervals of one minute, 0.49 to 1,000 μM",
  "method": "In the following Examples, 1 mL of an emulsifier (Tween 80) and 1 mL of 99.7% ethanol were added to 70 μL of the resultant extracted oil immediately before use, and the mixture was diluted with physiological saline (Otsuka) in Example 1 or with distilled water in Example 2, to thereby prepare solutions containing different concentrations of capsinoid. In the same way as above, 1 mL of an emulsifier (Tween 80) and 1 mL of 99.7% ethanol were added to 30.5 mg of capsaicin (manufactured by Sigma-Aldrich) immediately before use, and the mixture was diluted with physiological saline (Otsuka) in Example 1 or with distilled water in Example 2, to thereby prepare solutions containing different concentrations of capsaicin.\nSeventeen healthy adults (mean age 36±2.6) inhaled the capsaicin solution prepared in Production Example (0.49 to 1,000 μM) by a nebulizer for 15 seconds at intervals of one minute, and the concentrations for causing five or more coughs by one aspiration (C5) were determined.\nAt a later date, the same test was performed for the same test subjects using the capsinoid solutions (0.49 to 1,000 μM) to determine C5, followed by comparison between C5 of the capsaicin solution and C5 of the capsinoid solution.",
  "data": [
    {"smiles": "COc1cc(CNC(=O)CCCC/C=C/C(C)C)ccc1O", "note": "[capsaicin solution, capsaicin]", "values": [
      {"measurement": "C5 (concentration for causing five or more coughs by one aspiration)", "result": 2.02, "unit": "µM"}
    ]}
  ]
}
